# In ChEMBL document CHEMBL1129885, “Rational design of selective thrombin inhibitors” (Bioorg Med Chem Lett, 1997):
# pKi: −log10 of the molar value.
# Columns and labels:
# Serine protease 1 = biological target: T1, Serine protease 1 (Bos taurus, UniProt P00760); test: Inhibitory effect of compound was measured in bovine trypsin
# T1 sequence (P00760 whole entry): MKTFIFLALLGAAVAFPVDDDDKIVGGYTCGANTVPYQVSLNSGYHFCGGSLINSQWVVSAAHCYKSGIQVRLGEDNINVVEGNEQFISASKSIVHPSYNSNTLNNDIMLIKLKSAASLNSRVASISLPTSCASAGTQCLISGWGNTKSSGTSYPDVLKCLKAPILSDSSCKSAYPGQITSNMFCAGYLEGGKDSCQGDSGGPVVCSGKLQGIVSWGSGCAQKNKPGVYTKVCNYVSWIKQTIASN
# Prothrombin = Prothrombin (Bos taurus, UniProt P00735); test: Inhibitory effect against bovine thrombin
# [1] = Ratio of inhibitory effect of bovine trypsin to that of bovine thrombin
SMILES,pKi (Serine protease 1),pKi (Prothrombin),Ratio [1]
N=C(N)c1ccc(C[C@@H](NC(=O)CNS(=O)(=O)c2ccc3ccccc3c2)C(=O)N2CCCCC2)cc1,–,8.19,–
N=C(NN)c1ccc(C[C@H](NS(=O)(=O)c2ccc3ccccc3c2)C(=O)N2CCCCCC2)cc1,5.43,8.83,2540
NN=C(N)c1ccc(C[C@@H](NC(=O)CNS(=O)(=O)c2ccc3ccccc3c2)C(=O)N2CCCCC2)cc1,3.72,5.27,–
NN=C(N)c1ccc(C[C@@H](NC(=O)CNS(=O)(=O)c2ccc3ccccc3c2)C(=O)N2CCCCCC2)cc1,–,5.57,–
CNC(=N)c1ccc(C[C@@H](NC(=O)CNS(=O)(=O)c2ccc3ccccc3c2)C(=O)N2CCCCC2)cc1,–,–,19
N=C(NN)c1ccc(C[C@@H](NC(=O)CNS(=O)(=O)c2ccc3ccccc3c2)C(=O)N2CCCCC2)cc1,–,–,36
N=C(NN)c1ccc(C[C@H](NS(=O)(=O)c2ccc3cc4ccccc4cc3c2)C(=O)N2CCCCCC2)cc1,–,9.00,–
N=C(N)c1ccc(C[C@@H](NC(=O)CNS(=O)(=O)c2ccc3ccccc3c2)C(=O)N2CCCCCC2)cc1,–,7.70,–

# Second part, the compound after the results:
pKi (Serine protease 1),pKi (Prothrombin),Ratio [1],SMILES
3.50,5.94,–,N=C(NO)c1ccc(C[C@H](NS(=O)(=O)c2ccc3ccccc3c2)C(=O)N2CCCCCC2)cc1
–,4.87,–,CCNC(=N)c1ccc(C[C@H](NS(=O)(=O)c2ccc3ccccc3c2)C(=O)N2CCCCCC2)cc1
3.26,7.34,–,CN=C(N)c1ccc(C[C@H](NS(=O)(=O)c2ccc3ccccc3c2)C(=O)N2CCCCCC2)cc1
–,–,12000,CNC(=N)c1ccc(C[C@H](NS(=O)(=O)c2ccc3ccccc3c2)C(=O)N2CCCCCC2)cc1
5.06,7.28,166,N=C(N)c1ccc(C[C@H](NS(=O)(=O)c2ccc3ccccc3c2)C(=O)N2CCCCCC2)cc1
–,7.30,–,N=C(N)c1ccc(C[C@H](NS(=O)(=O)c2ccc3cc4ccccc4cc3c2)C(=O)N2CCCCCC2)cc1
–,–,277,N/C(=N\O)c1ccc(C[C@H](NS(=O)(=O)c2ccc3ccccc3c2)C(=O)N2CCCCCC2)cc1
4.09,5.36,–,CN=C(N)c1ccc(C[C@@H](NC(=O)CNS(=O)(=O)c2ccc3ccccc3c2)C(=O)N2CCCCC2)cc1
